Measurements taken from patent publication US20090137499A1, “BENZYLPHENYL GLUCOPYRANOSIDE DERIVATIVE” (priority 2006, published 2009).
pIC50: −log10 of the molar value.

molecular target: T1, human SGLT2 (Homo sapiens, UniProt P31639); assay: Determination of SGLT2 inhibiting activity using human SGLT2 expressing cell ([14C]-α-methyl-D-glucopyranoside uptake); type: cell-based; settings: HEK-SGLT2 cells, 1 mM [14C]-α-methyl-D-glucopyranoside, 37° C., 30 min
T1 construct: expressed in transfected cells
T1 sequence (P31639 1-672): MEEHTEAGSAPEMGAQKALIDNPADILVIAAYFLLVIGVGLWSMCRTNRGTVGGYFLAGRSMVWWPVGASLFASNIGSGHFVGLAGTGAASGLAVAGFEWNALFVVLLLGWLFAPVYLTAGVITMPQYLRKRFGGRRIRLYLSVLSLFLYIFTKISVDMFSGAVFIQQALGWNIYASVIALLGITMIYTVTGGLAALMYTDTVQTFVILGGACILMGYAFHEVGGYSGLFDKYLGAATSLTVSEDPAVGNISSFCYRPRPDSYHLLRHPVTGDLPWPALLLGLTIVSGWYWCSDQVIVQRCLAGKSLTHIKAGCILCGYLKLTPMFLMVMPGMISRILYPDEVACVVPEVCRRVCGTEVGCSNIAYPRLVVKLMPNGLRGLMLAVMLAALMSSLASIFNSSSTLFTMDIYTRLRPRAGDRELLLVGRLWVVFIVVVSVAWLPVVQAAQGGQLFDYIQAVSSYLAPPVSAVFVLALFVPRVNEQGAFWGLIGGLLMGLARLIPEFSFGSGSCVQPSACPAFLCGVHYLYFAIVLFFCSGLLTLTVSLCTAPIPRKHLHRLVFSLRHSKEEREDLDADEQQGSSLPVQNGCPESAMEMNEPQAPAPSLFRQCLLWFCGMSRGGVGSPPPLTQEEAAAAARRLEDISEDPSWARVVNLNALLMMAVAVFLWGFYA
Experimental: Determination of SGLT2 Inhibiting Activity Using Human SGLT2 Expressing Cell
1) Preparation of Vector Expressing Human SGLT2 cDNA in Animal Cell
Amplification was performed by PCR using human SGLT2 cDNA clone (Origene: Clone Number, TC303267; GenBank accession number, NM 003041) as a template. The sense oligonucleotide primer for PCR was 5′-[…]-3′ (Primer 3: SEQ ID NO: 3 in the sequence listing),
and the antisense oligonucleotide primer was 5′-[…]-3′ (Primer 4: SEQ ID NO: 4 in the sequence listing). The PCR product was subjected to agarose electrophoresis, then a target DNA fragment was recovered from a single band corresponding to 2037 bases, digested with restriction enzymes HindIII and XhoI, and introduced into the HindIII/XhoI site of vector pCMV-Script (Stratagene) to obtain SGLT2 expressing plasmid pCMV-SGLT2. A HindIII/XhoI fragment was excised from pCMV-SGLT2 and introduced into the BamHI/XhoI site of pENTR1A (Gateway, Invitrogen) to prepare pENTR-SGLT2. Retrovirus vector pLPCX (Clontech) into which Gateway Vector Conversion System Cassette A (Invitrogen) was introduced was used as the destination plasmid to prepare SGLT2 expressing retrovirus vector pLPCX-SGLT2.
2) Establishment of Human SGLT2 Expressing Cell
The retrovirus pLPCX-SGLT2 obtained in 1) was transfected into integrin αvβ3 expressing HEK-293 cells, the cells were treated with antibiotic G418 (brand name, Geneticin: Invitrogen) and puromycin (Clontech) to obtain HEK-SGLT2 cells stably expressing the target vector having resistance. The stably expressing cells were cultured and maintained in DMEM medium containing […] G418, […] puromycin, 3 mM KGT-1075, and 10% FBS.
3) Determination of SGLT2 Inhibiting Activity
HEK-SGLT2 cells were suspended at a density of 10^6 cells/mL in DMEM medium containing 250 mg/mil G418, 1 mg/ml puromycin, and 10% FBS, and 100 μL was seeded in each well of a type 1 collagen-coated 96-well culture plate (Corning). On the following day, the medium was replaced with a sugar uptake buffer (10 mM HEPES [pH 7.5], 5 mM Tris-HCl [pH 7.5], 140 mM NaCl, 2 mM KCl, 1 mM CaCl2, 1 mM MgCl2), and the cells were cultured with 1 mM [^14C]-α-methyl-D-glucopyranoside (0.1 mCi) and a test compound at 37° C. for 30 min, and then washed 3 times with a washing buffer (10 mM HEPES (pH 7.5), 5 mM Tris-HCl (pH 7.5), 140 mM choline chloride, 2 mM KCl, 1 mM CaCl2, 1 mM MgCl2). 100 μL of liquid scintillation cocktail (brand name, Supermix: Perkin-Elmer) was added to each well of the 96-well plate and stirred for 10 min, and then radioactivity was determined with micro β (Perkin-Elmer), a type of liquid scintillation counter. The value obtained by deducting the radioactivity in the presence of an excess amount of an SGLT2 inhibiting compound as the background from each measured value was taken as the sugar uptake activity, the inhibition rate (%) was calculated from the control sugar uptake activity obtained without using a test compound and the sugar uptake activity obtained using a test compound having a predetermined concentration, and the concentrations of the test compound at which the sugar uptake activity was inhibited by 50% were assessed.

Row | Structure (SMILES) | pIC50
1 | COc1ccc(Cc2ccc(CO)cc2O[C@@H]2O[C@H]([C@@H](C)O)[C@@H](O)[C@H](O)[C@H]2O)cc1 [Example 9, 2-(4-Methoxybenzyl)-5-hydroxymethylphenyl 7-deoxy-D-glycero-β-D-gluco-heptopyranoside] | 8.03
2 | COc1ccc(Cc2cc(CO)cnc2O[C@@H]2O[C@H]([C@@H](C)O)[C@@H](O)[C@H](O)[C@H]2O)cc1 [Example 38, 3-(4-Methoxybenzyl)-5-hydroxymethylpyridin-2-yl 7-deoxy-D-glycero-β-D-gluco-heptopyranoside] | 7.77
3 | CCc1ccc(Cc2ccc(N)cc2O[C@@H]2O[C@H](C(C)O)[C@@](C)(O)[C@H](O)[C@H]2O)cc1 (stereo partly drawn) [Example 41, 5-Amino-2-(4-ethylbenzyl)phenyl 4-C-methyl-7-deoxy-glycero-β-D-gluco-heptapyranoside] | 7.85
4 | COc1ccc(Cc2c(Cl)cccc2O[C@@H]2O[C@H]([C@@H](C)O)[C@@H](O)[C@H](O)[C@H]2O)cc1 [Example 42, 3-Chloro-2-(4-methoxybenzyl)phenyl 7-deoxy-D-glycero-β-D-gluco-heptopyranoside] | 7.74
5 | COc1ccc(Cc2c(Cl)cc(C)cc2O[C@@H]2O[C@H]([C@@H](C)O)[C@@H](O)[C@H](O)[C@H]2O)cc1 [Example 43, 3-Chloro-5-methyl-2-(4-methoxybenzyl)phenyl 7-deoxy-D-glycero-β-D-gluco-heptopyranoside] | 7.21
6 | COc1ccc(Cc2c(Cl)cc(CO)cc2O[C@@H]2O[C@H]([C@@H](C)O)[C@@H](O)[C@H](O)[C@H]2O)cc1 [Example 44, 3-Chloro-5-hydroxymethyl-2-(4-methoxybenzyl)phenyl 7-deoxy-D-glycero-β-D-gluco-heptopyranoside] | 8.00
7 | CCOc1ccc(Cc2c(Cl)cc(CO)cc2O[C@@H]2O[C@H]([C@@H](C)O)[C@@H](O)[C@H](O)[C@H]2O)cc1 [Example 45, 3-Chloro-2-(4-ethoxybenzyl)-5-hydroxymethyl-phenyl 7-deoxy-D-glycero-β-D-gluco-heptopyranoside] | 7.35
8 | CCOc1ccc(Cc2c(F)cc(CO)cc2O[C@@H]2O[C@H]([C@@H](C)O)[C@@H](O)[C@H](O)[C@H]2O)cc1 [Example 46, 2-(4-Ethoxybenzyl)-3-fluoro-5-hydroxymethyl-phenyl 7-deoxy-D-glycero-β-D-gluco-heptopyranoside] | 7.80
9 | CCc1ccc(Cc2c(F)cc(CO)cc2O[C@@H]2O[C@H]([C@@H](C)O)[C@@H](O)[C@H](O)[C@H]2O)cc1 [Example 47, 2-(4-Ethylbenzyl)-3-fluoro-5-hydroxymethyl-phenyl 7-deoxy-D-glycero-β-D-gluco-heptopyranoside] | 7.42
10 | COc1ccc(Cc2c(Cl)cc(CO)cc2O[C@@H]2O[C@H]([C@H](C)O)[C@@H](O)[C@H](O)[C@H]2O)cc1 [Example 57, 3-Chloro-5-hydroxymethyl-2-(4-methoxybenzyl)phenyl 7-deoxy-L-glycero-β-D-gluco-heptopyranoside] | 7.96
11 | C[C@@H](O)[C@H]1O[C@@H](Oc2cc(CO)ccc2Cc2ccc(OC3CC3)cc2)[C@H](O)[C@@H](O)[C@@H]1O [Example 60, 2-(4-Cyclopropyloxybenzyl)-5-hydroxymethylphenyl 7-deoxy-D-glycero-β-D-gluco-heptopyranoside] | 7.92
12 | C[C@@H](O)[C@H]1O[C@@H](Oc2cc(CO)ccc2Cc2ccc(C3CC3)cc2)[C@H](O)[C@@H](O)[C@@H]1O [Example 62, 2-(4-Cyclopropylbenzyl)-5-hydroxymethylphenyl 7-deoxy-D-glycero-β-D-gluco-heptopyranoside] | 7.49
13 | C[C@@H](O)[C@H]1O[C@@H](Oc2cc(CO)cc(F)c2Cc2ccc(OC3CC3)cc2)[C@H](O)[C@@H](O)[C@@H]1O [Example 63, 2-(4-Cyclopropoxybenzyl)-3-fluoro-5-hydroxymethyl-phenyl 7-deoxy-D-glycero-β-D-gluco-heptopyranoside] | 7.47
14 | CSc1ccc(Cc2ccc(CO)cc2O[C@@H]2O[C@H]([C@@H](C)O)[C@@H](O)[C@H](O)[C@H]2O)cc1 [Example 66, 5-Hydroxymethyl-2-(4-methylsulfanylbenzyl)phenyl 7-deoxy-D-glycero-β-D-gluco-heptopyranoside] | 7.64
15 | CCc1ccc(Cc2ccc(CCO)cc2O[C@@H]2O[C@H]([C@@H](C)O)[C@@H](O)[C@H](O)[C@H]2O)cc1 [Example 67, 2-(4-Ethylbenzyl)-5-(2-hydroxyethyl)phenyl 7-deoxy-D-glycero-β-D-gluco-heptopyranoside] | 7.52
16 | C[C@@H](O)[C@H]1O[C@@H](Oc2cc(CO)ccc2Cc2ccc(CCCO)cc2)[C@H](O)[C@@H](O)[C@@H]1O [Example 68, 5-Hydroxymethyl-2-[4-(3-hydroxypropyl)benzyl]phenyl 7-deoxy-D-glycero-β-D-gluco-heptopyranoside] | 7.92
17 | COc1ccc(Cc2c(C)cc(C)cc2O[C@@H]2O[C@H]([C@@H](C)O)[C@@H](O)[C@H](O)[C@H]2O)cc1F [Example 69, 2-(3-Fluoro-4-methoxybenzyl)-3,5-dimethylphenyl 7-deoxy-D-glycero-β-D-gluco-heptopyranoside] | 7.40
18 | Cc1cc(C)c(Cc2ccc(CCO)cc2)c(O[C@@H]2O[C@H]([C@@H](C)O)[C@@H](O)[C@H](O)[C@H]2O)c1 [Example 70, 2-[4-(2-Hydroxyethyl)benzyl]-3,5-dimethylphenyl 7-deoxy-D-glycero-β-D-gluco-heptopyranoside] | 7.40
19 | CCCOc1ccc(Cc2c(F)cc(CO)cc2O[C@@H]2O[C@H]([C@@H](C)O)[C@@H](O)[C@H](O)[C@H]2O)cc1 [Example 74, 3-Fluoro-5-hydroxymethyl-2-(4-propoxybenzyl)phenyl 7-deoxy-D-glycero-β-D-gluco-heptopyranoside] | 7.33
20 | CC(C)Oc1ccc(Cc2c(F)cc(CO)cc2O[C@@H]2O[C@H]([C@@H](C)O)[C@@H](O)[C@H](O)[C@H]2O)cc1 [Example 75, 3-Fluoro-5-hydroxymethyl-2-(4-isopropoxybenzyl)phenyl 7-deoxy-D-glycero-β-D-gluco-heptopyranoside] | 7.42
21 | COc1ccc(Cc2c(C)cc(C)cc2O[C@@H]2O[C@H]([C@@H](C)O)[C@@H](O)[C@H](O)[C@H]2O)cc1 [Example 77, 3,5-Dimethyl-2-(4-methoxybenzyl)phenyl 7-deoxy-D-glycero-β-D-gluco-heptopyranoside] | 7.60
22 | COc1ccc(Cc2ccc(CO)cc2O[C@@H]2O[C@H]([C@@H](C)O)[C@@H](O)[C@H](O)[C@H]2O)cc1F [Example 78, 2-(3-Fluoro-4-methoxybenzyl)-5-hydroxymethylphenyl 7-deoxy-D-glycero-β-D-gluco-heptopyranoside] | 7.96
23 | COc1ccc(Cc2ccc(CO)cc2O[C@@H]2O[C@H]([C@@H](C)O)[C@@H](O)[C@H](O)[C@H]2O)c(F)c1 [Example 82, 2-(2-Fluoro-4-methoxybenzyl)-5-hydroxymethylphenyl 7-deoxy-D-glycero-β-D-gluco-heptopyranoside] | 8.03
